# Calls of active or inactive are those of the source. The calls are words filed in the database; no cut-off is given here.
# Tests used:
# NaV1.5 = NaV1.5 (Homo sapiens, UniProt Q14524); assay: Inhibition of human NaV1.5 at 10 uM relative to control
# [1] = Oral bioavailability in NCR nude mouse at 5 mg/kg measured upto 8 hrs by LC-MS/MS analysis; assay type: ADME, organism-based; settings: in vivo
# [2] = tested on: Phosphatidylinositol 4,5-bisphosphate 3-kinase catalytic subunit alpha isoform (Homo sapiens), P42336 [H1047R]; assay: Induction of P110alpha H1047R mutant degradation in human HCC1954 cells at 0.012 to 1 uM after 24 hrs; assay type: cell-based; settings: dose 0.012-1 µM
# [3] = AUC in NCR nude mouse at 5 mg/kg, po measured upto 8 hrs by LC-MS/MS analysis; assay type: ADME, organism-based; parameters: time < 8 hrs, dose 5 mg/kg, route po; settings: in vivo
# [4] = Clearance in Sprague-Dawley rat plasma at 1 mg/kg, iv measured upto 8 hrs by LC-MS/MS analysis; assay type: ADME, organism-based
# [5] = Thermodynamic aqueous solubility of the compound at pH 2; assay type: physicochemical; settings: read-out: Therm_solubility
# [6] = Lipophilicity, logD of compound in 1-Octanol/PBS at pH 7.4 by LC-MS/MS method; assay type: physicochemical
# [7] = Plasma protein binding in human assessed as unbound fraction at 5 uM incubated for 4 hrs by equllibrium dialysis method; assay type: ADME, cell-free
# [8] = Plasma protein binding in mouse assessed as unbound fraction at 5 uM incubated for 4 hrs by equllibrium dialysis method; assay type: ADME, cell-free
# MCF7 = assay: Antiproliferative activity against human MCF7 cells assessed as reduction in cell viability incubated for 4 days by Celltiter-Glo luminescence assay; assay type: functional, cell-based; settings: MCF7, 96 h
# HCC1954 [9] = assay: Antitumor activity against human HCC1954 cells xenografted in mouse assessed as tumor growth inhibition at 50 mg/kg, po QD; assay type: functional; settings: read-out: TGI
# [10] = Oral bioavailability in Sprague-Dawley rat plasma at 5 mg/kg measured upto 8 hrs by LC-MS/MS method; assay type: ADME, organism-based
# hERG (KCNH2) = hERG (KCNH2) (Homo sapiens, UniProt Q12809); assay: Inhibition of human ERG at 10 uM relative to control; assay type: toxicity
# CaV1.2 = CaV1.2 (Homo sapiens, UniProt Q13936); assay: Inhibition of human CaV1.2 at 10 uM relative to control
# Cytochrome P450 2D6 = Cytochrome P450 2D6 (Homo sapiens, UniProt P10635); assay: Inhibition of CYP2D6 (unknown origin); assay type: ADME
# [11] = Dissociation constant, pKa of the compound; assay type: physicochemical
# Cytochrome P450 2C9 = Cytochrome P450 2C9 (Homo sapiens, UniProt P11712); assay: Inhibition of CYP2C9 (unknown origin); assay type: ADME
# Mus musculus [12] = assay: In vivo inhibition of PI3K in human HCC1954 cells xenografted in po dosed mouse; assay type: functional, organism-based; settings: DDE = dose-dependent effect
# [13] = Antiproliferative activity against human KPL-4 cells assessed as reduction in cell viability incubated for 4 days by Celltiter-Glo luminescence assay; assay type: functional, cell-based; settings: KPL4, 96 h
# Cytochrome P450 2C8 = biological target: T1, Cytochrome P450 2C8 (Homo sapiens, UniProt P10632); assay: Inhibition of CYP2C8 (unknown origin); assay type: ADME
# T1 sequence (P10632 whole entry): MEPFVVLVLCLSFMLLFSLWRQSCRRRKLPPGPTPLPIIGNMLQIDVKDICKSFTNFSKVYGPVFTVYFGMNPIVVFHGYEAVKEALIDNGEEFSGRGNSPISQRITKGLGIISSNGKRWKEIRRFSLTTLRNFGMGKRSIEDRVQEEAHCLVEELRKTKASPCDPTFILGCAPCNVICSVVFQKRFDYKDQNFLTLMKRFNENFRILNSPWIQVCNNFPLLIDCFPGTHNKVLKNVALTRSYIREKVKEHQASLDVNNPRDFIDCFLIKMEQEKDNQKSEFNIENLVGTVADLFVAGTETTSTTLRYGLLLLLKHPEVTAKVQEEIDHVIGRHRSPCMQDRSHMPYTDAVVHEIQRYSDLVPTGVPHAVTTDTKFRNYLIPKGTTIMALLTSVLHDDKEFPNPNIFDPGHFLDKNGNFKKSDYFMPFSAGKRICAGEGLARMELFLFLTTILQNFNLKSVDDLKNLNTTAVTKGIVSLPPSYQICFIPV
# [14] = Thermodynamic solubility of the compound in FaSSIF; assay type: physicochemical; settings: read-out: Therm_solubility
# [15] = Plasma protein binding in rat assessed as unbound fraction at 5 uM incubated for 4 hrs by equllibrium dialysis method; assay type: ADME, cell-free
# HCC1954 [16] = assay: Antitumor activity against human HCC1954 cells xenografted in mouse assessed as tumor growth inhibition at 25 mg/kg, po QD; assay type: functional; settings: read-out: TGI
# HCC1954 [17] = assay: Antitumor activity against human HCC1954 cells xenografted in mouse assessed as increase in cleaved PARP level at 50 mg/kg, po; assay type: functional, organism-based
# Cytochrome P450 3A4 = Cytochrome P450 3A4 (Homo sapiens, UniProt P08684); assay: Inhibition of CYP3A4 (unknown origin); assay type: ADME
# [18] = Inhibition of PI3KC2b (unknown origin); parameters: species or system Homo sapiens
# [19] = Thermodynamic solubility of the compound in FaSSGF; assay type: physicochemical; settings: read-out: Therm_solubility
# Cytochrome P450 1A2 = biological target: T2, Cytochrome P450 1A2 (Homo sapiens, UniProt P05177); assay: Inhibition of CYP1A2 (unknown origin); assay type: ADME
# T2 sequence (P05177 whole entry): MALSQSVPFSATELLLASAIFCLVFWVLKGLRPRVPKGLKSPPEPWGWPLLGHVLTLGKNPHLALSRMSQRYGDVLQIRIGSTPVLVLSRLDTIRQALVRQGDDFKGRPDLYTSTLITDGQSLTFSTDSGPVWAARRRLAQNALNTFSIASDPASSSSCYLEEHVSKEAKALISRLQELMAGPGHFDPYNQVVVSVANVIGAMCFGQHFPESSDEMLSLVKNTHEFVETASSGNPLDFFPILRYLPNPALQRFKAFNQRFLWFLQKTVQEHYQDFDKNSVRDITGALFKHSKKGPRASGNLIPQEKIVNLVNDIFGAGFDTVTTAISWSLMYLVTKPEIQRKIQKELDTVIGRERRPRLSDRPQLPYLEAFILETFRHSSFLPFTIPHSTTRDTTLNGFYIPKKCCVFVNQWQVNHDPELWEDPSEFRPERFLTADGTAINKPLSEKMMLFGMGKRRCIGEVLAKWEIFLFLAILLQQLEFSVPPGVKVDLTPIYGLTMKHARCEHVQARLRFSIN
# Mus musculus [20] = assay: In vivo inhibition of PI3K in human HCC1954 cells xenografted in mouse at 50 mg/kg, po; assay type: functional, organism-based; settings: TDE = time-dependent effect
# Sequence of hERG (KCNH2) (Q12809 whole entry): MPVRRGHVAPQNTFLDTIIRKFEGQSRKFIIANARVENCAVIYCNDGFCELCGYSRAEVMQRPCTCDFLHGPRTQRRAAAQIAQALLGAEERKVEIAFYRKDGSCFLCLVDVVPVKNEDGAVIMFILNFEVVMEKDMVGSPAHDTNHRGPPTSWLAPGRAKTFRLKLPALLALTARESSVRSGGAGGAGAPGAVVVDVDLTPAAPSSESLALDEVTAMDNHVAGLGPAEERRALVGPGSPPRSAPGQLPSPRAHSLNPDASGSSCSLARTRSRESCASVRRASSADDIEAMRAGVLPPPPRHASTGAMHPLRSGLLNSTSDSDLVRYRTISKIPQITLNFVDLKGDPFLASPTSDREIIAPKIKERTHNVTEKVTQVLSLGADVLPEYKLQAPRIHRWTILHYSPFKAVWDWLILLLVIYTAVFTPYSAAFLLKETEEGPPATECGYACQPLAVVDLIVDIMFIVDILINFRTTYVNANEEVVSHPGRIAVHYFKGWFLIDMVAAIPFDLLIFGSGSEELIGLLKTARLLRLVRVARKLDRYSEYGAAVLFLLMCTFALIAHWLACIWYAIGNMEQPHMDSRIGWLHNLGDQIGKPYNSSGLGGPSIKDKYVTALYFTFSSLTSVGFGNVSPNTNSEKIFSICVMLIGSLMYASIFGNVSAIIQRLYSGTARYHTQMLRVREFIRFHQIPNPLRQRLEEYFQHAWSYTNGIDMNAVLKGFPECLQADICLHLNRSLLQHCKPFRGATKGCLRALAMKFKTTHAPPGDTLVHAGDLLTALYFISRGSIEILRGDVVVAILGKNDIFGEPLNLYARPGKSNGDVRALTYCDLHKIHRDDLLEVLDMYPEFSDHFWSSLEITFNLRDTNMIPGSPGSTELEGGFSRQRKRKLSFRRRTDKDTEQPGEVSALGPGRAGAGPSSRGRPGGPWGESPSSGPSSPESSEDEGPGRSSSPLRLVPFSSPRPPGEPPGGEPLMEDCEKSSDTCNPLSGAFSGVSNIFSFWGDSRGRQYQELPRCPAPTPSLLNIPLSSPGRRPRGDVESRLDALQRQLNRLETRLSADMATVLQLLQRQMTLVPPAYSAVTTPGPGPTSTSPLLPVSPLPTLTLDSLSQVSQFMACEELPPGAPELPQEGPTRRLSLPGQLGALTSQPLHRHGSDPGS
# Sequence of Cytochrome P450 2D6 (P10635 whole entry): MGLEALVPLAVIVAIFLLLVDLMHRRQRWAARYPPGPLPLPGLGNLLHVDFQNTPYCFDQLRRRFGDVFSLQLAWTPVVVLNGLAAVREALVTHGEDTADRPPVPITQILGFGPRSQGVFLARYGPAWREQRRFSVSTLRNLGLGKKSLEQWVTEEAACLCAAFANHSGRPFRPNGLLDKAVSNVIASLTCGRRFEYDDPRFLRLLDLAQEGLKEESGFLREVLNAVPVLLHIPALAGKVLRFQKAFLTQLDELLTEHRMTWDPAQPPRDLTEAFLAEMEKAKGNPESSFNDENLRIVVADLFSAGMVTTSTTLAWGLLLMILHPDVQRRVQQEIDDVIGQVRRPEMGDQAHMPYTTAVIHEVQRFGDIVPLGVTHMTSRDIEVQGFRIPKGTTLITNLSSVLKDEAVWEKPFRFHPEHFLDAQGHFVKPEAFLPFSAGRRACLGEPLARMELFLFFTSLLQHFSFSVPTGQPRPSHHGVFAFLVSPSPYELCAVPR
# Sequence of Phosphatidylinositol 4,5-bisphosphate 3-kinase catalytic subunit alpha isoform (Homo sapiens), P42336 [H1047R] (P42336 whole entry H1047R, canonical isoform): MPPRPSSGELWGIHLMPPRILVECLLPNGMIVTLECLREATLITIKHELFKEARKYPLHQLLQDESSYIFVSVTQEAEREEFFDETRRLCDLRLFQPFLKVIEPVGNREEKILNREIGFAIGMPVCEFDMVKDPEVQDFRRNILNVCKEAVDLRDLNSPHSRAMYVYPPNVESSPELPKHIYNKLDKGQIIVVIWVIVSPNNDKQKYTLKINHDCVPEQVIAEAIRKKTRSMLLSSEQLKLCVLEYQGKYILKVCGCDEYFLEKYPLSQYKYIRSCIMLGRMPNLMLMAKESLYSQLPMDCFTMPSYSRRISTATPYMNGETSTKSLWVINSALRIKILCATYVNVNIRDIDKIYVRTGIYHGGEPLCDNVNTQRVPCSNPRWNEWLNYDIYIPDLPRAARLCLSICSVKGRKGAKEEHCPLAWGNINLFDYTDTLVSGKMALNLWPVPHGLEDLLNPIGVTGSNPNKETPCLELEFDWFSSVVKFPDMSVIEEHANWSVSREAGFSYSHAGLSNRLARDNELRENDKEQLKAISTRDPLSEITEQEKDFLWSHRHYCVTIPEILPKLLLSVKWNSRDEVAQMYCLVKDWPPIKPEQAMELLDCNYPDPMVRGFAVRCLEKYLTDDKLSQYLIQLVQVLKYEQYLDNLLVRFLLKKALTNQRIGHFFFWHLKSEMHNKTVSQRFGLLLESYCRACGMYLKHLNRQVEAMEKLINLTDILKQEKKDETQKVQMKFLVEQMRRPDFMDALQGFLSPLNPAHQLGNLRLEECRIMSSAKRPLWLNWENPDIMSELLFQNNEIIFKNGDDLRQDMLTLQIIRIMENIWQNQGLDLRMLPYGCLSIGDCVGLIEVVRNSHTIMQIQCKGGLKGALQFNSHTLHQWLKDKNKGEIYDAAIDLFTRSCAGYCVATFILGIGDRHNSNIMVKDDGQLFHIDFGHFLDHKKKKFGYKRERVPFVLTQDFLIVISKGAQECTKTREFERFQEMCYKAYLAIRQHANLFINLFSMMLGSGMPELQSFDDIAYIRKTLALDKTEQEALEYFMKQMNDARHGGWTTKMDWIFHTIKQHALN
# Sequence of Cytochrome P450 2C9 (P11712 whole entry): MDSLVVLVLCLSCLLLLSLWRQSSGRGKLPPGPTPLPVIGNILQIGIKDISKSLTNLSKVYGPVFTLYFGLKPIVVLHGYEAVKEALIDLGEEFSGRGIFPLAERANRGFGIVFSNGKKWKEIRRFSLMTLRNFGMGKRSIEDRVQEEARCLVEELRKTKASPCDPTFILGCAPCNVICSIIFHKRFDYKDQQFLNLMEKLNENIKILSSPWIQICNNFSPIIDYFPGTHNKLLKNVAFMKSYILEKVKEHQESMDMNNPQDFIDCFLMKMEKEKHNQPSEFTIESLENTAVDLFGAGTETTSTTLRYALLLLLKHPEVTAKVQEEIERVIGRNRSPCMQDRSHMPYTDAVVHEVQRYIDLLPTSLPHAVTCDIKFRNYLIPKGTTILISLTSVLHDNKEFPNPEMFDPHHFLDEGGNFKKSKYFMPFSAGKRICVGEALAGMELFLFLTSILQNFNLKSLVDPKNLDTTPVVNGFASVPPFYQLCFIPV
# Sequence of Cytochrome P450 3A4 (P08684 whole entry): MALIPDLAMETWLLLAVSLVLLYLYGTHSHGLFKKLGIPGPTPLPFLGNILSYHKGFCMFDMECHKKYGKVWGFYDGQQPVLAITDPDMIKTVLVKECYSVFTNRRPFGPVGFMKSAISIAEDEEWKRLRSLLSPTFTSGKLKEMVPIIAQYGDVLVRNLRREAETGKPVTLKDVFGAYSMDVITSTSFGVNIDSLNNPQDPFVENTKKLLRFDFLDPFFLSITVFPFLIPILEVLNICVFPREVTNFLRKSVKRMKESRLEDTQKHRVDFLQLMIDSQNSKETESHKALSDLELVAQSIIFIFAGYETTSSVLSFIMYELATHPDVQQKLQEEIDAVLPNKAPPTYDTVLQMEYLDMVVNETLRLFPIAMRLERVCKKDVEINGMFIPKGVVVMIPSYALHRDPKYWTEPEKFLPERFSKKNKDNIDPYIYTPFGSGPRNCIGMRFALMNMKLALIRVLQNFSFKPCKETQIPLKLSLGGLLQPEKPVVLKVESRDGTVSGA
compound,measurement,setting,value
C[C@H](Nc1ccc2c(c1)OCCn1cc(N3C(=O)OC[C@H]3C(F)F)nc1-2)C(N)=O [INAVOLISIB],inhibition at 10 µM,NaV1.5,< 20%
same,bioavailability,[1],45%
same,Activity,[2],Active
same,AUC at 8 h,[3],2.5 µM·h
same,clearance,[4],86 mL/min/kg
same,solubility thermodynamic,[5],615 µg/mL
same,logD,[6],0.8
same,"fraction unbound at 4 h, 5 µM",[7],0.589
same,"fraction unbound at 4 h, 5 µM",[8],0.261
same,EC50,MCF7,30 nM
same,inhibition in vivo at 50 mg/kg,HCC1954 [9],149%
same,bioavailability,[10],58%
same,inhibition at 10 µM,hERG (KCNH2),< 20%
same,inhibition at 10 µM,CaV1.2,< 20%
same,IC50,Cytochrome P450 2D6,> 10000 nM
same,pKa,[11],3.3
same,IC50,Cytochrome P450 2C9,> 10000 nM
same,inhibition,Mus musculus [12],Dde
same,EC50,[13],10 nM
same,IC50,Cytochrome P450 2C8,> 10000 nM
same,solubility thermodynamic,[14],36 µg/mL
same,"fraction unbound at 4 h, 5 µM",[15],0.608
same,inhibition in vivo at 25 mg/kg,HCC1954 [16],140%
same,Activity,HCC1954 [17],Active
same,IC50,Cytochrome P450 3A4,> 10000 nM
same,IC50,[18],56 nM
same,solubility thermodynamic,[19],1600 µg/mL
same,IC50,Cytochrome P450 1A2,> 10000 nM
same,inhibition,Mus musculus [20],Tde

# From ChEMBL document CHEMBL5150064 (J Med Chem, 2022)
